Reference: ChEMBL document CHEMBL3991601, “The target landscape of clinical kinase drugs” (Science, 2017)
The source made the active and inactive calls. For most assays here, no stated cut-off is given here; in the data, actives have a measured Kd and inactives only a lower limit.

What follows are compounds tested against Serine/threonine-protein kinase ATR (Homo sapiens, UniProt Q13535).
Chain of Serine/threonine-protein kinase ATR (Q13535 whole entry): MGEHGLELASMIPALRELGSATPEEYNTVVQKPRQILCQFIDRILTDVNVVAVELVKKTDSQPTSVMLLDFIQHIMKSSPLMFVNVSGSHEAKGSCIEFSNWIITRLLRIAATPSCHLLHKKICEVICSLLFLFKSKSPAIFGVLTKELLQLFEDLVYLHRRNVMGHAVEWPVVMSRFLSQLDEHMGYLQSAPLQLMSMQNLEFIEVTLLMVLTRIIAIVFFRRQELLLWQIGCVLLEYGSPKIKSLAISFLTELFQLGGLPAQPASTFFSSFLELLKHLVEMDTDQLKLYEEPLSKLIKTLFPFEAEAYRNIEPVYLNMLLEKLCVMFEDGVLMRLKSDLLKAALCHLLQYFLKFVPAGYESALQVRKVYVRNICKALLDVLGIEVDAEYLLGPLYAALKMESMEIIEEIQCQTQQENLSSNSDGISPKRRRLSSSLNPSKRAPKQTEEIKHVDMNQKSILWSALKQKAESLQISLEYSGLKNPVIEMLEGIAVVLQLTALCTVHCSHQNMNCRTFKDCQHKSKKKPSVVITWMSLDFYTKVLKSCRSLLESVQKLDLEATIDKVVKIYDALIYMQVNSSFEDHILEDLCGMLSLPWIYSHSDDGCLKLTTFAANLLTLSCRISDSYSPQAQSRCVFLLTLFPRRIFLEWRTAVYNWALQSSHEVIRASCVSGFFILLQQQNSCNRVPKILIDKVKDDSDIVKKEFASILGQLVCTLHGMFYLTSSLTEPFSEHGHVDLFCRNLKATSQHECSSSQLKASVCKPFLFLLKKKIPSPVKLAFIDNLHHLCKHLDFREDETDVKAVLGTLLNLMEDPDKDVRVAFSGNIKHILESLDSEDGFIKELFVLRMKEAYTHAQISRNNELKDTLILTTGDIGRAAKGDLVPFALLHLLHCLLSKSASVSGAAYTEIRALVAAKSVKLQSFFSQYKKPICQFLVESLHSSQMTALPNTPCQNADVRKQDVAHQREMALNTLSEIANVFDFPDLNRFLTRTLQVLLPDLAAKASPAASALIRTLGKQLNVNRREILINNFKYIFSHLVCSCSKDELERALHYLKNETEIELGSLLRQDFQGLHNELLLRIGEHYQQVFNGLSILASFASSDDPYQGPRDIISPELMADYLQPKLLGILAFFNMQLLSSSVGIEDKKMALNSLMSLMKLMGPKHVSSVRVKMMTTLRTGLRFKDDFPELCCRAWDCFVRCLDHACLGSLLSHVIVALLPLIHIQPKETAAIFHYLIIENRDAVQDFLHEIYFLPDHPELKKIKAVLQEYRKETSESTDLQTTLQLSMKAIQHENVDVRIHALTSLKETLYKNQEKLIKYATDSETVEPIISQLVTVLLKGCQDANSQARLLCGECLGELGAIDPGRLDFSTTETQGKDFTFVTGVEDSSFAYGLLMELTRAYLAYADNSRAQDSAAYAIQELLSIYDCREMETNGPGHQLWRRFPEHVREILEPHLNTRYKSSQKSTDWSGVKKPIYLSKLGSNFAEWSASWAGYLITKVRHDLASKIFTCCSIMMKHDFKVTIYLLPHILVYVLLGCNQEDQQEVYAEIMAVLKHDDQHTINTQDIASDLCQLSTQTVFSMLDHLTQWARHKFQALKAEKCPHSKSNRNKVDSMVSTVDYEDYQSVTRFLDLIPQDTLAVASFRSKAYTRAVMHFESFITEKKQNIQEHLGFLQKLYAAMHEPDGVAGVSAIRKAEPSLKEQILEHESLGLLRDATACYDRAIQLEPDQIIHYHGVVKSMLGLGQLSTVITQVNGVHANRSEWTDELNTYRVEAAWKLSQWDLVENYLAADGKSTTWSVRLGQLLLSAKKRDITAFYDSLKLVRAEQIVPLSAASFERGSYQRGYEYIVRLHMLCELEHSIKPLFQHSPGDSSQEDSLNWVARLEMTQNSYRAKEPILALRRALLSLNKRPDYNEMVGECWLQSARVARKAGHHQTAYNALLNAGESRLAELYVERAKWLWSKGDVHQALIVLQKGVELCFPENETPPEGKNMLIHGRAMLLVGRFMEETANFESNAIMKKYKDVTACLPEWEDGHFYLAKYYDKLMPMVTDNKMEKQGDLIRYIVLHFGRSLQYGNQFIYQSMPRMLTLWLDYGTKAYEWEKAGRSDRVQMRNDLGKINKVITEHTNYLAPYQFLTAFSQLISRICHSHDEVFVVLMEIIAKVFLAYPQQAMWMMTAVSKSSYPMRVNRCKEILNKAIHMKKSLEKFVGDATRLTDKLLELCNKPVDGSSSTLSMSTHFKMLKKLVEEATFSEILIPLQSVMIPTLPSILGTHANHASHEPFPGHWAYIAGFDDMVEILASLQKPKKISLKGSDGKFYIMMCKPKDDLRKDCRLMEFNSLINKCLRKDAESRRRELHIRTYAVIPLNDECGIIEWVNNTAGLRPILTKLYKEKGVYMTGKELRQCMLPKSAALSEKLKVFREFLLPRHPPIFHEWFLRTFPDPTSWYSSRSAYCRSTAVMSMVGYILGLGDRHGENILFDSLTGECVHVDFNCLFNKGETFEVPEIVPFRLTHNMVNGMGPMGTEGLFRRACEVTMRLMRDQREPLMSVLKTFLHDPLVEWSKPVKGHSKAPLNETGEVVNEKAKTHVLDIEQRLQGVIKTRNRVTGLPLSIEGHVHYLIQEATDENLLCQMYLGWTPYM
For `CCN1CCN(Cc2ccc(-c3cc4c(N[C@H](C)c5ccccc5)ncnc4[nH]3)cc2)CC1` [AEE-788], the Kd was > 30 µM (inactive). In the case of `COc1cc(N2CCC(N3CCN(C)CC3)CC2)ccc1Nc1ncnc(Nc2ccccc2S(=O)(=O)C(C)C)n1` [ASP-3026], the Kd is reported as > 30 µM (inactive). For `C[C@@H](Nc1cc(F)cc(F)c1)c1cc(C(=O)N(C)C)cc2c(=O)cc(N3CCOCC3)oc12` [AZD-8186], the Kd was > 30 µM (inactive). For `CCS(=O)(=O)N1CC(CC#N)(n2cc(-c3ncnc4[nH]ccc34)cn2)C1` [BARICITINIB], the Kd was > 30 µM (inactive).

What follows are compounds tested against Calcium/calmodulin-dependent protein kinase type II subunit gamma (Homo sapiens, UniProt Q13555).
`CCN1CCN(Cc2ccc(-c3cc4c(N[C@H](C)c5ccccc5)ncnc4[nH]3)cc2)CC1` [AEE-788] was tested, and the Kd was > 30 µM (inactive). `COc1cc(N2CCC(N3CCN(C)CC3)CC2)ccc1Nc1ncnc(Nc2ccccc2S(=O)(=O)C(C)C)n1` [ASP-3026] was tested, and the Kd was 1.41 µM (active). With `C[C@@H](Nc1cc(F)cc(F)c1)c1cc(C(=O)N(C)C)cc2c(=O)cc(N3CCOCC3)oc12` [AZD-8186] the Kd was > 30 µM (inactive). `CCS(=O)(=O)N1CC(CC#N)(n2cc(-c3ncnc4[nH]ccc34)cn2)C1` [BARICITINIB] was tested, and the Kd was 0.243 µM (active).

Each compound was assayed against T1, Serine/threonine-protein kinase Chk1 (Homo sapiens, UniProt O14757).
T1 sequence (O14757 whole entry): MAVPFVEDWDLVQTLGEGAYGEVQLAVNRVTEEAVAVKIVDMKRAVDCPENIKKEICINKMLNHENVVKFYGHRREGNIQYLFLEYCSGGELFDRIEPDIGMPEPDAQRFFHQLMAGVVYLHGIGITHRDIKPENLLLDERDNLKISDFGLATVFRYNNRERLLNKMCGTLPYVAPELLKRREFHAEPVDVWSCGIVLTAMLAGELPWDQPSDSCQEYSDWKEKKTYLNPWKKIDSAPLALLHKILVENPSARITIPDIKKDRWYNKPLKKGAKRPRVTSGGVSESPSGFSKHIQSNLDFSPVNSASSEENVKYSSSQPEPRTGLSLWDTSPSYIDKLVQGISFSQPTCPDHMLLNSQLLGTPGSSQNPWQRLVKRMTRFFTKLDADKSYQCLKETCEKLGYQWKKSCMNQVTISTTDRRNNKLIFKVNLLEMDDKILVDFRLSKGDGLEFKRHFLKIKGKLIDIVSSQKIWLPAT
For `CCN1CCN(Cc2ccc(-c3cc4c(N[C@H](C)c5ccccc5)ncnc4[nH]3)cc2)CC1` [AEE-788], the Kd was > 30 µM (inactive). For `COc1cc(N2CCC(N3CCN(C)CC3)CC2)ccc1Nc1ncnc(Nc2ccccc2S(=O)(=O)C(C)C)n1` [ASP-3026], the Kd was > 30 µM (inactive). With `C[C@@H](Nc1cc(F)cc(F)c1)c1cc(C(=O)N(C)C)cc2c(=O)cc(N3CCOCC3)oc12` [AZD-8186] the Kd was > 30 µM (inactive). With `CCS(=O)(=O)N1CC(CC#N)(n2cc(-c3ncnc4[nH]ccc34)cn2)C1` [BARICITINIB] the Kd was > 30 µM (inactive).

Each compound was assayed against Dual specificity protein kinase CLK1 (Homo sapiens, UniProt P49759).
Chain of Dual specificity protein kinase CLK1 (P49759 whole entry): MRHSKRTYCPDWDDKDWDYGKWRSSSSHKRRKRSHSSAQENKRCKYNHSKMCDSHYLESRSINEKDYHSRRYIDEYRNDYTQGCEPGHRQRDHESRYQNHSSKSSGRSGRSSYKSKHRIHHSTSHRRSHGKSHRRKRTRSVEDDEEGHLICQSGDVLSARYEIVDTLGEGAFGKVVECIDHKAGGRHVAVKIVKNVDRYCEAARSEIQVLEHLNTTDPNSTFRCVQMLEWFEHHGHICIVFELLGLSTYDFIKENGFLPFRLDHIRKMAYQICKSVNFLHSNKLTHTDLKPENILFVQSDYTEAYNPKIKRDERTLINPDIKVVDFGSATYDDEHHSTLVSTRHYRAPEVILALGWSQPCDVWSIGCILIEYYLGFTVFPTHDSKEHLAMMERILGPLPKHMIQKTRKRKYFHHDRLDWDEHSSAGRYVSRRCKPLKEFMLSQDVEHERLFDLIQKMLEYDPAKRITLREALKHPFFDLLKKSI
With `CCN1CCN(Cc2ccc(-c3cc4c(N[C@H](C)c5ccccc5)ncnc4[nH]3)cc2)CC1` [AEE-788] the Kd was > 30 µM (inactive). With `COc1cc(N2CCC(N3CCN(C)CC3)CC2)ccc1Nc1ncnc(Nc2ccccc2S(=O)(=O)C(C)C)n1` [ASP-3026] the Kd was > 30 µM (inactive). With `C[C@@H](Nc1cc(F)cc(F)c1)c1cc(C(=O)N(C)C)cc2c(=O)cc(N3CCOCC3)oc12` [AZD-8186] the Kd was > 30 µM (inactive). Work on `CCS(=O)(=O)N1CC(CC#N)(n2cc(-c3ncnc4[nH]ccc34)cn2)C1` [BARICITINIB] yielded a Kd of 0.778 µM.

These compounds were tested against Casein kinase I isoform delta (Homo sapiens, UniProt P48730).
Chain of Casein kinase I isoform delta (P48730 whole entry, canonical isoform): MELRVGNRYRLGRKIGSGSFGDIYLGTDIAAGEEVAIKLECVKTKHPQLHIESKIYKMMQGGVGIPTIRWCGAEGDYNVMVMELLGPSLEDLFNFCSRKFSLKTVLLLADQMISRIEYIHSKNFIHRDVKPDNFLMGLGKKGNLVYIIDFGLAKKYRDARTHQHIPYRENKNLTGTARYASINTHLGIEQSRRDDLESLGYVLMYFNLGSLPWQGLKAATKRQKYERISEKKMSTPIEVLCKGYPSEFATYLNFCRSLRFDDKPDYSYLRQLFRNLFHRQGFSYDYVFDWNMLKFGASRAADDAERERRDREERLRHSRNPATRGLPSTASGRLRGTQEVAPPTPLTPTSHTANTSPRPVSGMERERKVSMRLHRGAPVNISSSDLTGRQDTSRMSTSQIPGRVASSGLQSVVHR
With `CCN1CCN(Cc2ccc(-c3cc4c(N[C@H](C)c5ccccc5)ncnc4[nH]3)cc2)CC1` [AEE-788] the Kd was > 30 µM (inactive). `COc1cc(N2CCC(N3CCN(C)CC3)CC2)ccc1Nc1ncnc(Nc2ccccc2S(=O)(=O)C(C)C)n1` [ASP-3026] was tested, and the Kd was > 30 µM (inactive). In the case of `C[C@@H](Nc1cc(F)cc(F)c1)c1cc(C(=O)N(C)C)cc2c(=O)cc(N3CCOCC3)oc12` [AZD-8186], the Kd is reported as > 30 µM (inactive). In the case of `CCS(=O)(=O)N1CC(CC#N)(n2cc(-c3ncnc4[nH]ccc34)cn2)C1` [BARICITINIB], the Kd is reported as > 30 µM (inactive).

What follows are compounds tested against Serine/threonine-protein kinase Nek7 (Homo sapiens, UniProt Q8TDX7).
With `CCN1CCN(Cc2ccc(-c3cc4c(N[C@H](C)c5ccccc5)ncnc4[nH]3)cc2)CC1` [AEE-788] the Kd was > 30 µM (inactive).

Each compound was assayed against T2, Pyridoxal kinase (Homo sapiens, UniProt O00764).
T2 sequence (O00764 whole entry): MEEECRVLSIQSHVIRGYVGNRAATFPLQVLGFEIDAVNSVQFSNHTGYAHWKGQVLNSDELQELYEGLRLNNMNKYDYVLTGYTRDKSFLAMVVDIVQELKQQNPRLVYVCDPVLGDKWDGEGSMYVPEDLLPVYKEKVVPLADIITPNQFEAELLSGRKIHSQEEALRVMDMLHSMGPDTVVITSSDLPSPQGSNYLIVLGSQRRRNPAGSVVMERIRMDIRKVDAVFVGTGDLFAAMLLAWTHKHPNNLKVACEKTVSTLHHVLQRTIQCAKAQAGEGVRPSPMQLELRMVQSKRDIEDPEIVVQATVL
`CCN1CCN(Cc2ccc(-c3cc4c(N[C@H](C)c5ccccc5)ncnc4[nH]3)cc2)CC1` [AEE-788] was tested, and the Kd was > 30 µM (inactive). `COc1cc(N2CCC(N3CCN(C)CC3)CC2)ccc1Nc1ncnc(Nc2ccccc2S(=O)(=O)C(C)C)n1` [ASP-3026] was tested, and the Kd was > 30 µM (inactive). `C[C@@H](Nc1cc(F)cc(F)c1)c1cc(C(=O)N(C)C)cc2c(=O)cc(N3CCOCC3)oc12` [AZD-8186] was tested, and the Kd was > 30 µM (inactive). For `CCS(=O)(=O)N1CC(CC#N)(n2cc(-c3ncnc4[nH]ccc34)cn2)C1` [BARICITINIB], the Kd was > 30 µM (inactive).

Each compound was assayed against cAMP-dependent protein kinase catalytic subunit alpha (Homo sapiens, UniProt P17612).
For `CCN1CCN(Cc2ccc(-c3cc4c(N[C@H](C)c5ccccc5)ncnc4[nH]3)cc2)CC1` [AEE-788], the Kd was > 30 µM (inactive). For `COc1cc(N2CCC(N3CCN(C)CC3)CC2)ccc1Nc1ncnc(Nc2ccccc2S(=O)(=O)C(C)C)n1` [ASP-3026], the Kd was > 30 µM (inactive). In the case of `C[C@@H](Nc1cc(F)cc(F)c1)c1cc(C(=O)N(C)C)cc2c(=O)cc(N3CCOCC3)oc12` [AZD-8186], the Kd is reported as > 30 µM (inactive). With `CCS(=O)(=O)N1CC(CC#N)(n2cc(-c3ncnc4[nH]ccc34)cn2)C1` [BARICITINIB] the Kd was 3.6 µM (active).

What follows are compounds tested against Ribosomal protein S6 kinase alpha-3 (Homo sapiens, UniProt P51812).
Chain of Ribosomal protein S6 kinase alpha-3 (P51812 whole entry): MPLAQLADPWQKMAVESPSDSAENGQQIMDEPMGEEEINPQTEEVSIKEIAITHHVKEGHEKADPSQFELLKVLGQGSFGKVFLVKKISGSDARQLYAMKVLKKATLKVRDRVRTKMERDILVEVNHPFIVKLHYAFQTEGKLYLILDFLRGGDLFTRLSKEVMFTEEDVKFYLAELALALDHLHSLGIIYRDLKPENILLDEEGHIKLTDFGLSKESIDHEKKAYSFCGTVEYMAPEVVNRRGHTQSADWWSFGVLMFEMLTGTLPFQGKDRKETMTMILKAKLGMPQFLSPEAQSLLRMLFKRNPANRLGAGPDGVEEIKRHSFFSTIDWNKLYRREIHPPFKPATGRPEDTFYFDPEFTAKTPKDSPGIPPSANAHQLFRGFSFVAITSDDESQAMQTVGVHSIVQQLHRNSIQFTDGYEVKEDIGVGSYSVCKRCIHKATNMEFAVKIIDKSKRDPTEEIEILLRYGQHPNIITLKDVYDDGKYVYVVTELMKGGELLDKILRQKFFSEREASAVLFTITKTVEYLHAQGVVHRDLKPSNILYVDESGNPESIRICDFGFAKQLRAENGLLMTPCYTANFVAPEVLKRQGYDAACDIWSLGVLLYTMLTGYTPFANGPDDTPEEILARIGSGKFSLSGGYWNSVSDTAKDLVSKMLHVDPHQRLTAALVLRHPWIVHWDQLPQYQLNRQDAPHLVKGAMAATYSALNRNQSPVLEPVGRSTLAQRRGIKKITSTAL
With `CCN1CCN(Cc2ccc(-c3cc4c(N[C@H](C)c5ccccc5)ncnc4[nH]3)cc2)CC1` [AEE-788] the Kd was > 30 µM (inactive). In the case of `COc1cc(N2CCC(N3CCN(C)CC3)CC2)ccc1Nc1ncnc(Nc2ccccc2S(=O)(=O)C(C)C)n1` [ASP-3026], the Kd is reported as > 30 µM (inactive). In the case of `C[C@@H](Nc1cc(F)cc(F)c1)c1cc(C(=O)N(C)C)cc2c(=O)cc(N3CCOCC3)oc12` [AZD-8186], the Kd is reported as > 30 µM (inactive). With `CCS(=O)(=O)N1CC(CC#N)(n2cc(-c3ncnc4[nH]ccc34)cn2)C1` [BARICITINIB] the Kd was > 30 µM (inactive).

These compounds were tested against Ribosomal protein S6 kinase alpha-5 (Homo sapiens, UniProt O75582).
Chain of Ribosomal protein S6 kinase alpha-5 (O75582 whole entry): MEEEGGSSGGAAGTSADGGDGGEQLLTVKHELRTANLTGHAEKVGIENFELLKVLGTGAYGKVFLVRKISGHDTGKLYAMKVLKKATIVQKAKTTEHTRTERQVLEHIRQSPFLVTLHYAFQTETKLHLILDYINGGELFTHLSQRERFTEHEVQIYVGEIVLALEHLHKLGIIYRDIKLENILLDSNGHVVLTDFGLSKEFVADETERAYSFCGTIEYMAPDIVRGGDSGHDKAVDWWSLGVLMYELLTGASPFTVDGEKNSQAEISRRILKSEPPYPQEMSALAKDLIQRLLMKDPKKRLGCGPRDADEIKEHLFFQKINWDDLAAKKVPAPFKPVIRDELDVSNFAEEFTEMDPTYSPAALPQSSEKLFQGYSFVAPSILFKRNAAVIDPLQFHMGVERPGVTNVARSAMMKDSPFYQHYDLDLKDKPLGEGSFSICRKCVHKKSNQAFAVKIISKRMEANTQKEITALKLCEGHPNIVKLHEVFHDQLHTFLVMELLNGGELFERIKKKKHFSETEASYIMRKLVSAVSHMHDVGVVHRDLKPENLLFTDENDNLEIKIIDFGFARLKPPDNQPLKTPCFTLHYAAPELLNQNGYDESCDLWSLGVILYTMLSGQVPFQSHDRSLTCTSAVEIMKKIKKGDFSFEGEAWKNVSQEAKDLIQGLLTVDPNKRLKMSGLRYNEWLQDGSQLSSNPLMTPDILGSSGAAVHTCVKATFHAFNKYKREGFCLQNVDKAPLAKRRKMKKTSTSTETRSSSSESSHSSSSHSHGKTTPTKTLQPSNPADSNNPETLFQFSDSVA
With `CCN1CCN(Cc2ccc(-c3cc4c(N[C@H](C)c5ccccc5)ncnc4[nH]3)cc2)CC1` [AEE-788] the Kd was > 30 µM (inactive). For `COc1cc(N2CCC(N3CCN(C)CC3)CC2)ccc1Nc1ncnc(Nc2ccccc2S(=O)(=O)C(C)C)n1` [ASP-3026], the Kd was > 30 µM (inactive). For `C[C@@H](Nc1cc(F)cc(F)c1)c1cc(C(=O)N(C)C)cc2c(=O)cc(N3CCOCC3)oc12` [AZD-8186], the Kd was > 30 µM (inactive). In the case of `CCS(=O)(=O)N1CC(CC#N)(n2cc(-c3ncnc4[nH]ccc34)cn2)C1` [BARICITINIB], the Kd is reported as > 30 µM (inactive).
